Assay [1] is described as follows: Nitric oxide radical scavenging activity at 0.1 mg/ml. It counts as functional.
The nature of assay [2]: DPPH radical scavenging activity at 0.1 mg/ml. Format: functional. (In general: Loss of DPPH colour is used to gauge radical scavenging.)

The molecule `O=C1O[C@H]([C@@H](O)CO)C(O)=C1O` returned an Activity in assay [1] of 66%.

Take `COc1cc2c(c(O)c1C)C(=O)Nc1ccc(O)cc1O2`: the Activity in assay [1] stood at 59%.

As to `COc1cc2c(c(OC)c1C)C(=O)Nc1ccc(O)c(C)c1O2`, the Activity in assay [2] was 25%; in assay [1], 63%.

The record behind these values is ChEMBL document CHEMBL1143792, “Natural dibenzoxazepinones from leaves of Carex distachya: Structural elucidation and radical scavenging activity” (Bioorg Med Chem Lett, 2007).
